Data published in US8912121B2, “Herbicidal compositions comprising 4-amino-3-chloro-5-fluoro-6-(4-chloro-2-fluoro-3-methoxyphenyl)pyridine-2-carboxylic acid or a derivative thereof and certain PS II inhibitors” (Dow Agrosciences LLC, priority 2012, dated 2014).

Test system: XANST (Xanthium strumarium, common cocklebur)
Test: Pre-emergence soil-applied mixtures, greenhouse
Format: in vivo, Xanthium strumarium L.
Conditions: for Visual Weed Control (%) Obs: 32 DAA
Source text: Seeds or nutlets of the desired test plant species were planted in a soil matrix prepared by mixing a loam soil (32 percent silt, 23 percent clay, and 45 percent sand, with a pH of about 6.5 and an organic matter content of about 1.9 percent) and calcareous grit in an 80 to 20 ratio. The soil matrix was contained in plastic pots with a volume of 1 quart and a surface area of 83.6 square centimeters (cm^2).
Treatments consisted of the benzyl ester of 4-amino-3-chloro-5-fluoro-6-(4-chloro-2-fluoro-3-methoxy-phenyl)pyridine-2-carboxylic acid (compound A) formulated as an SC (suspension concentrate) and various herbicidal components alone and in combination. Forms of compound A were applied on an acid equivalent basis.
Other herbicidal components were applied on an acid equivalent or active ingredient basis and included the PSII-inhibiting herbicides, atrazine formulated as Atrazine® 90WDG, metribuzin formulated as Metribuzin 75DF, simazine formulated as Princep Caliber 90, tebuthiuron formulated as Spike 80DF, cyanazine (technical grade material), hexazinone (technical grade material), linuron (technical grade material), terbuthylazine (technical grade material), and diuron formulated as Diuron 4L.
Treatment requirements were calculated based upon the rates being tested, the concentration of active ingredient or acid equivalent in the formulation, and a 12 mL application volume at a rate of 187 L/ha.
For treatments comprised of formulated compounds, measured amounts of compounds were placed individually in 25 mL glass vials and diluted in a volume of 1.25% (v/v) Agri-Dex® crop oil concentrate (COC) to obtain 12× stock solutions. […] Application solutions were prepared by adding an appropriate amount of each stock solution (e.g., 1 mL) and diluted to the appropriate final concentrations with the addition of 10 mL of an aqueous mixture of 1.25% (v/v) COC so that the final spray solutions contained 1.25% (v/v) COC.
For treatments comprised of technical compounds, weighed amounts can be placed individually in 25 mL glass vials and dissolved in a volume of 97:3 (v/v) acetone/DMSO to obtain 12× stock solutions. […] Application solutions can be prepared by adding an appropriate amount of each stock solution (e.g., 1 mL) and diluted to the appropriate final concentrations with the addition of 10 mL of an aqueous mixture of 1.5% (v/v) COC so that the final spray solutions contain 1.25% (v/v) COC. When technical materials are used, the concentrated stock solutions can be added to the spray solutions so that the final acetone and DMSO concentrations of the application solutions are 16.2% and 0.5%, respectively.
For treatments comprised of formulated and technical compounds, weighed amounts of the technical materials can be placed individually in 25 mL glass vials and dissolved in a volume of 97:3 (v/v) acetone/DMSO to obtain 12× stock solutions, and measured amounts of the formulated compounds can be placed individually in 25 mL glass vials and diluted in a volume of 1.5% (v/v) COC or water to obtain 12× stock solutions. […] Application solutions can be prepared by adding an appropriate amount of each stock solution (e.g., 1 mL) and diluted to the appropriate final concentrations with the addition of an appropriate amount of an aqueous mixture of 1.5% (v/v) COC so that the final spray solutions contain 1.25% (v/v) COC. As required, additional water and/or 97:3 (v/v) acetone/DMSO can be added to individual application solutions so that the final acetone and DMSO concentrations of the application solutions being compared are 8.1% and 0.25%, respectively.
All stock solutions and applications solutions were visually inspected for compound compatibility prior to application. Spray solutions were applied to the soil with an overhead Mandel track sprayer equipped with a 8002E nozzles calibrated to deliver 187 L/ha over an application area of 0.503 m^2 at a spray height of 18 inches (46 cm) above average pot height. […]

[1] = Compound A Benzyl Ester 16 g ae/ha
[2] = Compound A Benzyl Ester 32 g ae/ha

CCNc1nc(Cl)nc(NC(C)C)n1 [Atrazine, 6-chloro-N-ethyl-N′-(1-methylethyl)-1,3,5-triazine-2,4-diamine, reference compound]
Visual Weed Control (%) Obs (560 g ai/ha): 68%
Visual Weed Control (%) Obs (1120 g ai/ha): 40%

COc1c(Cl)ccc(-c2nc(C(=O)OCc3ccccc3)c(Cl)c(N)c2F)c1F [Compound A Benzyl Ester, benzyl ester of 4-amino-3-chloro-5-fluoro-6-(4-chloro-2-fluoro-3-methoxy-phenyl)pyridine-2-carboxylic acid]
Visual Weed Control (%) Obs (8 g ae/ha): 33%
Visual Weed Control (%) Obs (16 g ae/ha): 35%
Visual Weed Control (%) Obs (32 g ae/ha): 65%
Visual Weed Control (%) - 27 DAA XANST Obs [1]: 10%
Visual Weed Control (%) - 29 DAA XANST Obs [1]: 0%
Visual Weed Control (%) - 33 DAA XANST Obs [1]: 38%
Visual Weed Control (%) - 27 DAA XANST Obs [2]: 25%
Visual Weed Control (%) - 29 DAA XANST Obs [2]: 5%
Visual Weed Control (%) - 33 DAA XANST Obs [2]: 35%

CCNc1nc(Cl)nc(NCC)n1 [Simazine, 6-chloro-N,N′-diethyl-1,3,5-triazine-2,4-diamine, reference compound]
Visual Weed Control (%) - 33 DAA XANST Obs (Simazine 1120 g ai/ha): 70%
Visual Weed Control (%) - 33 DAA XANST Obs (Simazine 2240 g ai/ha): 92%
